Read-outs that look alike come from different tables or passages of the source.
Key:
[1] = Human Study 2: single ascending oral dose, plasma pharmacokinetics; assay type: in vivo
Protocol: (§1) In human study 1, fospropofol disodium was formulated as a sterile aqueous solution at a concentration of 20 mg/mL. Each vial provided contained 20 mL of solution, suitable for intravenous injection. Fospropofol was administered as a single dose of 400 mg orally, directly into the duodenum by gastroscopy or intravenously over 10 min. In human study 2, fospropofol disodium in capsules (200 mg) or matching placebo was administered orally.
A second single ascending dose study was subsequently performed to assess the safety, tolerability, and pharmacokinetics of oral administration of fospropofol as a capsule. This was a double-blind, randomized, crossover, placebo-controlled, single ascending dose study. Ten healthy volunteers were enrolled, 6 males and 4 females between 18 and 45 years of age inclusive with a body mass index between 18 and 28 kg/m^2. Each subject received four ascending oral doses of fospropofol disodium (200, 600, 1,000 and 1,200 mg) and one of placebo. Placebo was administered randomly, in one of the five periods. Subjects stayed in the clinical research unit over 3 days per treatment for five consecutive treatments. […] Pharmacokinetic parameters, safety and pharmacodynamic effect were assessed in a manner similar to that in Study 1 described above. […]

[2] = Human Study 1: absolute bioavailability, plasma pharmacokinetics of fospropofol and propofol; assay type: in vivo; conditions: for Tmax / bioavailability / half-life: male, human, plasma; for half-life: read-out: mean t1/2 of fospropofol (converted)
Protocol: as §1
The first study was an absolute bioavailability study of fospropofol conducted at a single center (PRA Health Sciences) in Groningen, Netherlands, as a three-way crossover study. The study enrolled 7 healthy male volunteers between 18 and 45 years of age inclusive, with a body mass index between 18 and 28 kg/m^2. Subjects stayed in the clinical unit for three consecutive periods of 3 days each, with a 3-day washout, between periods. For six subjects, the order of the administration routes was as follows—period 1: PO, period 2: ID, and period 3: IV. For one subject the order of the administration routes was the following—period 1: ID, period 2: IV and period 3: PO. In this study a single dose of 400 mg was administered by each route. Blinding and placebo control was impractical due to the requirement of unsedated endoscopic administration of fospropofol into the duodenum. Safety and overall pharmacodynamic effect was evaluated based on adverse events, vital signs, electrocardiogram (ECG), Modified Observer's Assessment of Alertness/Sedation (OAA/S) score, clinical laboratory tests, and physical examination.
In the first study, 6 mL blood samples were collected following the PO and ID fospropofol treatment periods at times of pre-dose, 5, 10, 20, 30, 45, 60, 90 min and 2, 4, 6 and 9 h post-dose and in the IV fospropofol treatment period at pre-dose and at 5, 10, 15, 20, 30, 45, 60 and 120 min post-dose. In the second study a 6 mL blood sample was collected following each fospropofol PO dose (200, 600, 1,000 and 1,200 mg) at pre-dose, 5, 10, 20, 30, 45, 60, 90 min and 2, 4, 6 and 9 h post-dose. The blood was collected in a sodium heparin vacutainer tube containing 60 mg SOV, inverted approximately eight times to dissolve SOV and placed on dry ice until it was centrifuged at 3,000 rpm for 10 min at 4° C. to harvest plasma. Plasma samples were then stored at −20° C. until analysis.
The parameters were summarized using descriptive statistics.

[3] = Intranasal delivery of fospropofol in monkeys: plasma and CSF levels; assay type: in vivo, monkey
Protocol: More particularly, in this example, monkeys were dosed with 50 mg fospropofol by intranasal administration. Plasma and cerebrospinal fluid (CSF) were collected before treatment (graphed as t=0), 15 minutes, 30 minutes, 1 hr, and 2 hr. Samples were analyzed for propofol and fospropofol by LC/MS. […] These samples are near the limit of quantification. FIGS. 11A and 11B show the data in nM and ng/mL scales, respectively.

Structure (SMILES)	fospropofol exposure vs dose ([1]; PO capsules 200-1,200 mg)	fospropofol Cmax, fold lower than IV ([2]; 400 mg ID vs IV) [fold]	plasma fospropofol by non-intravenous routes ([2]; 400 mg PO or ID)	fospropofol Cmax, fold lower than IV ([2]; 400 mg PO vs IV)	Tmax ([2]; other: intraduodenal, 400 mg ID, read-out: Tmax of fospropofol) [min]	bioavailability ([2]; other: intraduodenal, 400 mg ID, read-out: absolute bioavailability of fospropofol) [%]	half-life ([2]; other: intraduodenal, 400 mg ID) [min]	half-life ([2]; 400 mg IV) [min]	Tmax ([2]; 400 mg PO, read-out: Tmax of fospropofol) [min]	bioavailability ([2]; 400 mg PO, read-out: absolute bioavailability of fospropofol) [%]	half-life ([2]; 400 mg PO) [min]	fospropofol (prodrug) in plasma after intranasal administration ([3]; 50 mg intranasal)	fospropofol in CSF samples ([3]; 50 mg intranasal, only two samples)	propofol exposure vs dose ([1]; PO fospropofol capsules 200-1,200 mg)	bioavailability (F) of propofol based on AUC(0-∞) ([2]; fospropofol 400 mg ID) [%]	bioavailability (F) of propofol based on AUC(0-∞) ([2]; fospropofol 400 mg oral) [%]	Tmax ([2]; other: intraduodenal, fospropofol 400 mg ID) [min]	bioavailability ([2]; po, 400 mg, summary in discussion) [%]	Tmax ([2]; fospropofol 400 mg PO) [min]	propofol in plasma samples ([3]; 50 mg fospropofol intranasal, up to 2 hr)
CC(C)c1cccc(C(C)C)c1OCOP(=O)(O)O [fospropofol]	dose related increase	~534	Almost no plasma fospropofol was detected	approximately 88 fold	10.2	0.1	16.8	16.8	4.8	1	19.2	appreciable plasma concentrations of prodrug	low nanomolar range							
CC(C)c1cccc(C(C)C)c1O [propofol, 2,6-diisopropylphenol]														dose related increase	37	30	10.2	≥ 30	19.8	not quantifiable
